Results on 3 compounds are retold here after US10351501B2, “Gem difluorocompounds as depigmenting or lightening agents” (TFCHEM, priority 2015, dated 2019).

The nature of data set [1]: In vitro human skin absorption, Franz diffusion cell: quantification in the receptor fluid (flux). The settings on record: 200 μl at 2 mg/ml in water on human skin explant; receptor fluid T0 h to T24 h. Type of data set: in vitro ADME. From the text:
The aim of this study was to evaluate the absorption of compound 11 applied to excised human skin.
In vitro method using a Franz diffusion cell allows measuring the diffusion of chemicals into and across skin.
The tested compound is applied to the surface of a human skin explant separating the two chambers of a Franz diffusion cell. The compound remains on the skin for a specified time under specified conditions. The receptor fluid is sampled at time points throughout the experiment and analyzed for the tested compound. The skin may also be fractioned for separate analysis in epidermis or dermis layers.
The transcutaneous absorption was measured on human skin collected from the abdominoplasty of a single donor. At reception, the skin was defatted and cut in several fragments in order to perform Franz experiment. […]
The tested compounds were quantified, at T0 h and T24 h in the receptor solution bathing the inner surface of the skin (determination of flux), or at T24 h in the fractionated skin extracts (epidermis or dermis). […]
Sampling: 500 μL from the receptor fluid were removed at T0 h (replaced by Ringer solution) and at T24 h. These samples were analyzed by LC-MS/MS method for quantification of compound 11 and deoxyarbutin (results not shown). The quantity measured allowed to calculate a flux and to compare the absorption profile across the skin of compound 11 and deoxyarbutin.

Data set [2] in a line: In vitro stability: hydroquinone released in various chemical conditions (HPLC-UV/DAD). Format: physicochemical. How it is done: The stability of compound 11 was evaluated by the released of hydroquinone, which is a potentially toxic compound, in different chemical conditions (extreme conditions, simulating the application of these molecules on the skin) and it was compared to the deoxyarbutin.
This study involved different tests as degradation test and chemical stability (various chemical solutions, pH and temperatures).
Analytical Method (HPLC-UV/DAD Method)
Column Atlantis dC18 150 mm*4.6 mm*3 μm Waters, 30° C. Injection 50 μl, 25° C. λ: 220 nm, 265 nm, 285 nm. A-Acetonitrile B-Water; 0.8 ml/min; elution gradient: […]
This analytical method gave linear response for compound 11, Deoxyarbutin and Hydroquinone from 25 ng/mL to 1000 ng/mL. Dilution of samples had to be taken into account for each stability study to calculate the LLOQ of each compound.
The tested compounds are incubated in different solutions, at different times (see table 1). Then the analytical method was used to quantify remaining compounds and potential hydroquinone released (as possible degradation of compounds).
Hydroquinone (HQ) apparition is expressed as a percentage of initial compound 11 or Deoxyarbutin. The calculation was done in molar units and the limit of quantification fluctuates with the initial concentration.

Data set [3] has as its target T1, human recombinant tyrosinase (Homo sapiens, UniProt P14679).
T1 sequence (P14679 19-529): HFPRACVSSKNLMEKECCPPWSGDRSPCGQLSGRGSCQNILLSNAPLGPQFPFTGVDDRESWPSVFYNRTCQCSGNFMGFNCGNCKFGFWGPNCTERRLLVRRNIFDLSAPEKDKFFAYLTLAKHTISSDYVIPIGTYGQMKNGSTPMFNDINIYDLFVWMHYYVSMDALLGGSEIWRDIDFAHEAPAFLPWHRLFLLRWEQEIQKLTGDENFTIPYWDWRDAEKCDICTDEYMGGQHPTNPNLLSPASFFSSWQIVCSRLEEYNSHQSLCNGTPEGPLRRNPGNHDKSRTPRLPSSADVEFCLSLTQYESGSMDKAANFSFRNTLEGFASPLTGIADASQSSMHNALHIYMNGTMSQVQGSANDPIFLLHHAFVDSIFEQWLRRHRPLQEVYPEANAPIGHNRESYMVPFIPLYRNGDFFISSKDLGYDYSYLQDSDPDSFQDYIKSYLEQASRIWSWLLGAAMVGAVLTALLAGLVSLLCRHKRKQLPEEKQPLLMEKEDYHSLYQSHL
As to the kind of experiment: Inhibition of human tyrosinase in tubo (L-DOPA substrate, OD at 477 nm), IC50. Type of data set: biochemical. The settings on record: Tyrosinase Concentration 300 U/mL. How it is done: Substrate solution: L-DOPA (1 mg/mL) Solution B (L-DOPA 20 mg/Purified water up to 20 mL)
Preparation of Test Solutions (for IC50 Test—Examples for Deoxyarbutin)
Inhibitors solutions deoxyarbutin (1 mg/mL): Deoxyarbutin 20 mg in purified water up to 20 mL
This assay used a 96-well plate. Test solutions and controls were made several times.
The results were calculated from the OD measured at time point 20 min.
The determination of half maximal inhibitory concentration (IC50) was performed using the following formula.

Data set [4] can be described thus: Antioxidant activity by the spectrophotometric method of the free radical DPPH•. The following applies: molar ratio antioxidant/DPPH•; absorbance at T = 30 min. From the text: The aim of the study was to evaluate the antioxidant activity of compound 11 by the spectrophotometric method of the free radical DPPH• (2,2-diphenyl-1-picrylhydrazyl). Indeed, antioxidants react with DPPH^• (purple), a stable free radical which is reduced to DPPH-H (yellow), and in consequence, the absorbance is decreased from the DPPH^• radical to the DPPH-H form. The degree of discoloration indicates the scavenging potential of the antioxidant compounds in terms of hydrogen donating ability (Popovici et al. Revue de génie industriel 2009, 4, 25-39).
The tested compounds were: Trolox ((±)-6-hydroxy-2,5,7,8-tetramethylchromane-2-carboxylic acid, Sigma Aldrich), as reference, and compound 11.
A stock solution of DPPH• was prepared at 200 μmol/mL in methanol and diluted in methanol in order to have a final concentration of around 150 μmol/mL to obtain a DO close to 0.9 in a plate of 96 wells. The antioxidant stock solutions were prepared at 1 mg/mL in methanol and the tested solutions were prepared from these antioxidant stock solutions as described in Table 7 below.
50 μL of each solution of antioxidant was added to the wells. Then, 200 μL of DPPH^• was added to each well.
The blank was prepared with only 250 μl of methanol and the negative control was prepared with 200 μL DPPH• and 50 μL of methanol.
The analysis was started immediately after the addition of DPPH• lasting for 2 hours (readings every 20 seconds). The absorbance was read at 515 nm. Each experiment was performed three times and had shown that the absorbance decreases while the concentration of antioxidant increased.
The activity of DPPH• is a percentage calculated as the ratio of A/An×100%.
The EC50 is expressed as a molar ratio of antioxidant (compound 11)/DPPH• (Popovici et al. Revue de génie industriel 2009, 4, 25-39). The EC50 was determined from the graph representing the percentage of DPPH• in function of the above mentioned molar ratio (moles of compound 11/moles of DPPH•).
The antioxidant activity of compound 11 was compared to that of Trolox used as a reference (considered as 100%).

For another data set, the system named is human tyrosinase. As to the kind of experiment: HumanLike Tyrosinase Assay kit (Feldan), L-Tyrosine to dopachrome, OD at 490 nm. Format: biochemical. The following applies: for OD at 490 nm: 1.12 mM. The protocol:
The efficacy of compound 16 was evaluated by the inhibition of human tyrosinase in tubo and compared to the compound 11.
The assay was performed with a ready-to-use kit from Feldan Inc (Canada): the HumanLike Tyrosinase Assay kit (ref A021-a-001Kit).
The protocol was performed as described in the instructions for use of the manufacturer. Briefly, this kit is intended for the determination of human tyrosinase activity in presence of different inhibitors. The kit measures the conversion of L-Tyrosine into a dopachrome complex absorbing at 490 nm. The time course of the assay is 20 minutes, after which the results are analyzed and compared.
The compounds 11 and 16 have been tested at a final concentration of 1.12 mM.
The measured absorbances at 490 nm are reported in the table 5 and plotted in function of time in the FIG. 1.
Moreover for each compound the efficacy as tyrosinase inhibitor was calculated using the following formula: […]

Take `Oc1ccc(OC2CCCCO2)cc1` (stereo not shown) [Deoxyarbutin, reference compound]: the “Flux, mean (n = 3)” value in data set [1] is recorded as 3.98 μg/h/cm^2. Also, the “% Hydroquinone released” value worked out at 11.83% in data set [2] (Ringer's solution pH 5.5 at 70° C., 24 H); 88.76% in data set [2] (Ringer's solution pH 8.5 at 70° C., 24 H); 128.61% in data set [2] (Synthetic perspiration at RT, 48 H); 4.20% in data set [2] (Water at room temperature, 14 Days). The “Calculated IC50 Mean” value in data set [3] (mean of 4 tests) is 53 µg/mL. Besides, the 50% inhibitory concentration (IC50) in data set [3] (read-out: IC50) came out at 272 µM. In data set [3] (time 20 min), the “Calculated IC50 Test #1” value was 26 µg/mL. Also, the “Calculated IC50 Test #2” value in data set [3] (time 20 min) was 45 µg/mL. For the same compound, the “Calculated IC50 Test #3” value in data set [3] (time 20 min) is 80 µg/mL. Besides, the “Calculated IC50 Test #4” value in data set [3] (time 20 min) was 60 µg/mL.
Regarding `Cc1c(C)c2c(c(C)c1O)CCC(C)(C(=O)O)O2` (racemic) [Trolox, (±)-6-hydroxy-2,5,7,8-tetramethylchromane-2-carboxylic acid, reference compound], the “EC50 (Ratio antioxidant/DPPH•) Mean” value in data set [4] came to 0.240.
Consider `Oc1ccc(OC2CC(O)CCC2(F)F)cc1` (stereo not shown) [Compound 16], for which the “OD at 490 nm” value in the data set on human tyrosinase (time 0 min) is reported as 0.0000; with human tyrosinase (time 1 min) it was 0.0105; in the data set on human tyrosinase (time 2 min), 0.0185; with human tyrosinase (time 3 min) it was 0.0285; with human tyrosinase (time 4 min), 0.0385; with human tyrosinase (time 5 min) it was 0.0505. Besides, the “OD at 490 nm” value is recorded as 0.0605 in the data set with human tyrosinase (time 6 min); 0.0720 in the data set with human tyrosinase (time 7 min); 0.0815 with human tyrosinase (time 8 min); 0.0925 in the data set with human tyrosinase (time 9 min); 0.1025 in the data set on human tyrosinase (time 10 min); 0.1125 with human tyrosinase (time 11 min). The “OD at 490 nm” value amounted to 0.1225 in the data set with human tyrosinase (time 12 min); 0.1330 in the data set on human tyrosinase (time 13 min); 0.1435 in the data set with human tyrosinase (time 14 min); 0.1545 in the data set with human tyrosinase (time 15 min); 0.1650 with human tyrosinase (time 16 min); 0.1765 in the data set on human tyrosinase (time 17 min). Besides, the “OD at 490 nm” value amounted to 0.1885 in the data set with human tyrosinase (time 18 min), 0.2000 with human tyrosinase (time 19 min) and 0.2115 with human tyrosinase (time 20 min). Moreover, the “Inhibitor efficacy (%)” value in the data set with human tyrosinase (Compound at 1.12 mM, T = 20 min) is listed as 13.7%.
